Laboratory results reported in PubChem BioAssay AID1996.
Converted amounts (≈) assume the structure as drawn.

Conditions: buffer; pH 7.4; 200.0 µM

Compound	solubility kinetic
COc1ccc(C(=O)/C=C/c2ccc(N(C)C)cc2)c(OC)c1	3.2 µg/mL (≈ 10.3 µM)
Cc1ccc(C2(C)NC(=O)N(CC(=O)N3CCc4ccccc43)C2=O)cc1 (stereo unspecified)	3.6 µg/mL (≈ 9.91 µM)
CCOc1ccc(C(=O)NCC(c2ccco2)N2CCOCC2)cc1 (stereo unspecified)	> 51.7 µg/mL
C=CCON/C(CCC)=C1\C(=O)CC(C)(C)CC1=NC	34.9 µg/mL (≈ 125 µM)
CC(C)(CNC(=O)c1ccccc1F)CNC(=O)c1ccccc1F	51.6 µg/mL (≈ 149 µM)
CC(=O)c1sc(NC(=O)CCCOc2ccccc2C)nc1C	< 0.4 µg/mL
CCOC(=O)C1CCCCN1Cc1cccc(Oc2ccccc2)c1 (stereo unspecified)	< 0.7 µg/mL
Cc1ccc(Cl)cc1NC(=O)NCc1cccnc1	18.5 µg/mL (≈ 67.1 µM)
Cn1cc(C(=O)CCl)c2ccccc21	> 31.1 µg/mL
CCn1c(SCc2ccc(F)cc2)nc2ccccc2c1=O	0.5 µg/mL (≈ 1.59 µM)
CCN(C(=S)Nc1ccc(OC(F)F)cc1)C1CCCCC1	5.4 µg/mL (≈ 16.4 µM)
c1ccc(OCc2noc(CN3CC[C@@H]4CCCC[C@H]4C3)n2)cc1	6 µg/mL (≈ 18.3 µM)
CC(C)c1ccccc1NC(=S)NCc1ccncc1	41.1 µg/mL (≈ 144 µM)
O=C(CSc1nc2ccccc2[nH]1)NC1CCCC1	38.7 µg/mL (≈ 141 µM)
Cc1cc(NS(=O)(=O)c2c(C)c(C)cc(C)c2C)no1	> 44.2 µg/mL
CCN(CC)S(=O)(=O)c1ccc(C(=O)NC2=NCCS2)cc1	2.3 µg/mL (≈ 6.74 µM)
COC(=O)c1c(C)oc(C)c1S(=O)(=O)Nc1ccccc1	> 46.4 µg/mL
Cc1ccc(CSC2=Nc3ccccc3C3=NC(=O)CN23)cc1	4.9 µg/mL (≈ 15.2 µM)
CC(C)(C)/C(O)=C/c1nc2ccccc2oc1=O	36.8 µg/mL (≈ 150 µM)
CC(=O)Nc1ccc(S(=O)(=O)N[C@@H](C)C(=O)OCC(=O)c2ccc(C)cc2)cc1	37.7 µg/mL (≈ 90.1 µM)
COC(=O)Cc1c(O)ccn(C2CC2)c1=O	> 33.5 µg/mL
COc1ccccc1NC(=O)c1coc(=O)c(Br)c1	5.4 µg/mL (≈ 16.7 µM)
COc1ccc(CCNC(=O)c2cccn2C)cc1	33.3 µg/mL (≈ 129 µM)
COC(=O)C1=C(C)N(C)C(=O)NC1c1cccc2ccccc12 (stereo unspecified)	30.2 µg/mL (≈ 97.3 µM)
Nc1ccc2nc(SCC(=O)c3ccccc3)sc2c1	1.8 µg/mL (≈ 5.99 µM)

Compound	solubility kinetic
COc1ccc(/C=N/NC(=O)c2cccnc2)cc1	> 38.3 µg/mL
Cl.c1ccc(SCCCCN2CCOCC2)cc1	38.2 µg/mL
CCOC(=O)c1sc(NC(=O)c2ccccc2OCC)nc1C	< 0.4 µg/mL
O=C(COC(=O)CCc1ccc(S(=O)(=O)N2CCOCC2)cc1)Nc1ccccc1[N+](=O)[O-]	16.8 µg/mL (≈ 35.2 µM)
CCc1ccccc1NC(=O)c1sc2nc(C)cc(C)c2c1N	0.5 µg/mL (≈ 1.54 µM)
FC(F)(F)c1cccc(OCc2noc(-c3ccsc3)n2)c1	< 0.3 µg/mL
CCCn1c(=O)c2c(nc3n2CCN3Cc2ccco2)n(C)c1=O	> 49.4 µg/mL
CCCNc1nc(OC)nc(N2CC3CC(C2)c2cccc(=O)n2C3)n1 (stereo unspecified)	50.6 µg/mL (≈ 142 µM)
O=C1CCCC2=C1C(c1ccsc1)CC(=O)N2c1ccccc1F (stereo unspecified)	> 51.2 µg/mL
CCOC(=O)C(CC)Sc1cc(C)nc2ccc(OC)cc12 (stereo unspecified)	34.8 µg/mL (≈ 109 µM)
CC(=O)Nc1ccc(N=c2cc([N+](=O)[O-])cc(Cl)n2O)cc1	29 µg/mL (≈ 89.9 µM)
C=C(C)Cc1c(C)c(C#N)c2[nH]c3ccccc3n2c1=O	2.9 µg/mL (≈ 10.5 µM)
O=S(=O)(NCc1nc(-c2ccccc2)no1)c1ccc(F)cc1	6.4 µg/mL (≈ 19.2 µM)
CCCCc1ccc(S(=O)(=O)NC2CCS(=O)(=O)C2)cc1 (stereo unspecified)	47.9 µg/mL (≈ 145 µM)
CCc1cccc(C)c1NC(=O)C1CCCN(S(C)(=O)=O)C1 (stereo unspecified)	> 48.7 µg/mL
O=C(N[C@@H]1C[C@H]2CC[C@@H]1C2)c1ccco1	29.8 µg/mL (≈ 145 µM)
Cc1ccc(C2=N/C(=C\c3ccc(F)cc3)C(=O)N2)cc1	0.7 µg/mL (≈ 2.5 µM)
O=S(=O)(NCc1ccco1)c1ccc(Cl)cc1Cl	35 µg/mL (≈ 114 µM)
CC(C)CNC(=O)[C@@H]1CSC2c3ccccc3C(=O)N21 (stereo partly specified)	> 43.6 µg/mL
O=C(NCCCCCCNC(=O)c1ccccc1O)c1ccccc1O	1.2 µg/mL (≈ 3.37 µM)
CCc1cc(C(=O)c2ccc(OC)cc2)c(N)s1	20.9 µg/mL (≈ 80 µM)
Cn1c(SCC(=O)O)nc2sc3c(c2c1=O)CCC3	> 44.5 µg/mL
COc1ccc(Nc2ncnc3sccc23)cc1	36 µg/mL (≈ 140 µM)
O=C(NCCOc1cccc2cccnc12)c1cccs1	> 44.8 µg/mL
O=C(COC(=O)COc1ccccc1)Nc1cccnc1Cl	> 48.1 µg/mL

Compound	solubility kinetic
OC1(CC#CCN2CCCCC2)c2ccccc2-c2ccccc21	42.2 µg/mL (≈ 133 µM)
CN1CCN2c3ccccc3Cc3ccccc3C2C1.Cl (stereo unspecified)	> 45.1 µg/mL
COc1ccccc1N1CCN(C(=O)/C=C/c2cccc([N+](=O)[O-])c2)CC1	3.6 µg/mL (≈ 9.8 µM)
O=C(CNC(=O)C1CC1)Nc1ccc(F)c(F)c1F	> 40.8 µg/mL
O=C(COC(=O)/C=C/c1ccc(C(F)(F)F)cc1)NC1CCCC1	< 0.7 µg/mL
S=C(Nc1ccc(Br)cc1)N1CCN(c2ccccn2)CC1	2.1 µg/mL (≈ 5.57 µM)
COc1ccc(S(=O)(=O)NCC2CCCO2)cc1Cl (stereo unspecified)	34.2 µg/mL (≈ 112 µM)
COc1cc(C(=O)Nc2ccc(C)cc2)c2ccccc2n1	< 0.3 µg/mL
COC(=O)c1c(NC(=O)C2CC2)sc(C(=O)Nc2ccccc2)c1C	1.7 µg/mL (≈ 4.74 µM)
O=C(Nc1cc(Cl)cc(Cl)c1)C1CCCC1	< 0.6 µg/mL
COc1cccc(CNC2CCCCCCC2)c1OC	31.6 µg/mL (≈ 114 µM)
COc1ccc(/C=C/C(=O)NC2CCS(=O)(=O)C2)cc1 (stereo unspecified)	> 44.3 µg/mL
Cc1cc(C)c(S(=O)(=O)NC2CC(C)(C)NC(C)(C)C2)cc1Br	12.5 µg/mL (≈ 31 µM)
CCc1nc2ccccc2c(C(=O)Nc2ccc(C)cc2)c1C	< 0.3 µg/mL
COc1ccc(F)cc1S(=O)(=O)N1CCN(c2ccccn2)CC1	6.1 µg/mL (≈ 17.4 µM)
CSc1ccccc1NC(=S)NC1CCCCC1	30 µg/mL (≈ 107 µM)
CC12CC3CC(C)(C1)CC(C(O)CN1CCOCC1)(C3)C2.Cl (stereo unspecified)	> 49.5 µg/mL
COc1ccccc1C1CCN(c2cc(O)ccc2[N+](=O)[O-])CC1	38.9 µg/mL (≈ 118 µM)
Cc1sc2ncnc(N[C@@H](Cc3ccccc3)C(=O)O)c2c1C	46.8 µg/mL (≈ 143 µM)
N#C/C(=C\c1cccs1)C(=O)Nc1ccccn1	12.8 µg/mL (≈ 50.1 µM)
O=C(CCNC(=O)c1ccc(Br)cc1)NCc1ccco1	> 52.7 µg/mL
CN(CC(=O)NCC1CCCCC1)S(=O)(=O)c1ccc(F)cc1	16.2 µg/mL (≈ 47.3 µM)
Cc1nc2ccccc2c(=O)n1-c1cccc(C(F)(F)F)c1	43.6 µg/mL (≈ 143 µM)
O=C(O)CC(Sc1n[nH]c(=S)s1)C(=O)O (stereo unspecified)	> 39.9 µg/mL
COc1cc(SC)ccc1C(=O)NC1CCCc2ccccc21 (stereo unspecified)	< 0.7 µg/mL

Compound	solubility kinetic
O=C(/C=C/c1ccc(Cl)cc1)OCC(=O)c1ccc[nH]1	2.2 µg/mL (≈ 7.59 µM)
O=C(O)c1cc(NC(=O)C2CCCO2)cc(C(=O)O)c1 (stereo unspecified)	> 41.9 µg/mL
CN(c1ccccc1)S(=O)(=O)c1cc(C(=O)N2CCN(c3ncccn3)CC2)ccc1Cl	33.5 µg/mL (≈ 71 µM)
CC#CC[N+](C)(C)CC(=O)c1ccccc1.[Br-]	> 44.4 µg/mL
CCOC(=O)CNc1cccc(C(F)(F)F)c1	8 µg/mL (≈ 32.4 µM)
O=C(O)COc1ccc(/C=N/O)cc1Br	41 µg/mL (≈ 150 µM)
CCn1c(SCCN2CCOCC2)nc2c1c(=O)n(C)c(=O)n2C	> 53 µg/mL
Cc1ccc(S(=O)(=O)NC(C)(C)CSc2ncccn2)cc1	> 50.6 µg/mL
COC(=O)c1ccc(NC(=S)NC2CC2)cc1	> 37.5 µg/mL
COc1ccc(-c2cc(C(=O)N3CCCC3)no2)cc1	30.4 µg/mL (≈ 112 µM)
O=C(/C=C/c1ccccc1)NC(=S)Nc1ccccc1O	0.5 µg/mL (≈ 1.68 µM)
CC(C)(C)NC(=O)NC(=O)CN1CC=C(c2ccccc2)CC1	38.9 µg/mL (≈ 123 µM)
CCOc1ccccc1NC(=O)COC(=O)C1CCC1	39.2 µg/mL (≈ 141 µM)
CCOC(=O)C1CCCN(Cc2cccc(Oc3ccccc3)c2)C1 (stereo unspecified)	3.1 µg/mL (≈ 9.13 µM)
Cc1nc(SCC(=O)NC(=O)NC(C)C)nc(C)c1C	> 44.5 µg/mL
CN(C(=S)NCCN1CCOCC1)C(c1ccccc1)c1ccccc1	42.7 µg/mL (≈ 116 µM)
COc1ccccc1OCCn1cc(C(=O)C(C)C)c2ccccc21	< 0.7 µg/mL
Nc1ccc([As](=O)(O)O)cc1	> 32.6 µg/mL
COC1c2ccccc2C(=O)N1CCc1ccc(Cl)cc1 (stereo unspecified)	41.7 µg/mL (≈ 138 µM)
CN(C)CCCN=Cc1c(O)n(Cc2ccco2)c(=O)[nH]c1=O	36.4 µg/mL (≈ 114 µM)
CCCCC(=O)N(CCOC)c1nnc(-c2cccnc2)s1	> 48.1 µg/mL
CC(C)c1ccc(NC2CCCN(C(=O)c3ccncc3)C2)cc1 (stereo unspecified)	47.1 µg/mL (≈ 146 µM)
C[C@@H](C(=O)Nc1ccc(SC(F)F)cc1)N1C(=O)C2CCCCC2C1=O (stereo partly specified)	52.5 µg/mL (≈ 137 µM)
CCC(C)NCCOc1cc(C)cc(C)c1C.O=C(O)C(=O)O (stereo unspecified)	35.1 µg/mL
Cc1ccc(/C=C2/SC(=O)NC2=S)o1	31.1 µg/mL (≈ 138 µM)

Compound	solubility kinetic
CCn1c(CNC(=O)c2ccc(F)cc2)cc2ccccc21	1.5 µg/mL (≈ 5.06 µM)
Cc1cc(=O)oc2cc(OCC(=O)N3CCOCC3)c(Cl)cc12	> 50.7 µg/mL
COc1cccc(OCCNS(=O)(=O)c2ccccc2[N+](=O)[O-])c1	47.2 µg/mL (≈ 134 µM)
Cc1ccc(NC(=S)NC(=O)C2CCCCC2)c(Br)c1	1.7 µg/mL (≈ 4.78 µM)
CCCc1cc(C(=O)Nc2ccc(CC)cc2)no1	1.4 µg/mL (≈ 5.42 µM)
CCCNC(=O)COC(=O)c1ccc(N2CCCC2)c([N+](=O)[O-])c1	15.9 µg/mL (≈ 47.4 µM)
Cc1ccc(S(=O)(=O)Nc2ccc3nc(C)sc3c2)c(C)c1	30 µg/mL (≈ 90.2 µM)
CCOc1ccccc1NC(=O)c1ccc2nc[nH]c2c1	> 42.2 µg/mL
Cc1ccccc1S(=O)(=O)NCC1CCCO1 (stereo unspecified)	27.1 µg/mL (≈ 106 µM)
Cc1cccc(N2CCN(C(=O)NC3CCCCC3)CC2C)c1 (stereo unspecified)	> 47.3 µg/mL
CCCCn1c(=O)c(C(=O)Nc2ccccc2F)c(O)c2ccccc21	< 0.4 µg/mL
CCc1c(C(=O)Nc2cc(C(=O)OC)ccc2C)csc1C	1 µg/mL (≈ 3.15 µM)
Cc1ccccc1NC(=O)Cc1c[nH]c2ccccc12	39.5 µg/mL (≈ 149 µM)
CC1CN(C(=O)/C=C/c2ccccc2Cl)CC(C)O1 (stereo unspecified)	36.5 µg/mL (≈ 130 µM)
COc1ccc(C(=O)NC2=NCCS2)c(OC)c1	> 39.9 µg/mL
O=S(=O)(c1ccc(NCCCO)nc1)N1CCOCC1	> 45.2 µg/mL
CC(C(=O)NC1CCCCCC1)c1ccc([N+](=O)[O-])cc1 (stereo unspecified)	7.1 µg/mL (≈ 24.5 µM)
Cc1ccc(CNC(=O)C2CCCN(c3nc(C)cc(C)n3)C2)cc1 (stereo unspecified)	0.6 µg/mL (≈ 1.77 µM)
COc1cccc(NC(=O)c2ccccc2Oc2ccccc2)c1	6.4 µg/mL (≈ 20 µM)
CCOC(=O)c1cn2nc(Oc3ccccc3)ccc2n1	> 42.5 µg/mL
O=C(Nc1ccc(N2CCCC2)cc1)c1cc2ccccc2o1	0.4 µg/mL (≈ 1.31 µM)
